The values below are quoted from earlier work in patent US20080045610A1, “Methods for regulating neurotransmitter systems by inducing counteradaptations” (priority 2004, published 2008).

By half-life is commonly meant the time in which the quantity being followed falls by half.

Data set [1] concerns opiate receptor. The following applies: compared with native morphine compound.
The conditions of data set [2]: in vivo.
For data set [3] the following is noted: parent compound itself.

On to `CN1CC[C@]23c4c5ccc(O)c4O[C@H]2CC=C[C@H]3[C@H]1C5` [6-desoxymorphine], for which the “activity relative to native morphine” value in data set [1] was 10 times.

For `CC(=O)Oc1ccc2c3c1O[C@H]1[C@@H](OC(C)=O)C=C[C@H]4[C@@H](C2)N(C)CC[C@@]341` [diacetylmorphine], the oral bioavailability is ~67%.

In the case of `C=C1CC[C@@]2(O)[C@H]3Cc4ccc(O)c5c4[C@@]2(CCN3CC2CC2)[C@H]1O5` [nalmefene], the liver toxicity result in data set [2] is reported as “no dose dependent liver toxicity”. For the same compound, the half-life in data set [3] is 8 h.
